US7101872B2, “Farnesyl dibenzodiazepinone, and processes for its production” (Ecopia BioSciences, Inc., priority 2003, dated 2006)

How the values were obtained:
Test in all cases: NCI panel SRB growth inhibition
Assay type in all cases: cell-based
[1] = tested on: A498; conditions: Homo sapiens, A498, Renal, 48 h
Procedure: (§1) The operation of this unique screen utilizes […] different human tumor cell lines, representing leukemia, melanoma and cancers of the lung, colon, brain, ovary, breast, prostate, and kidney.
(§2) Culture conditions and plating: The human tumor cell lines of the cancer-screening panel were grown in RPMI 1640 medium containing 5% fetal bovine serum and 2 mM L-glutamine. For a typical screening experiment, cells were inoculated into 96 well microtiter plates in 100 μL at plating densities ranging from 5,000 to 40,000 cells/well depending on the doubling time of individual cell lines (Table 5). After cell inoculation, the microtiter plates were incubated at 37° C., 5% CO2, 95% air and 100% relative humidity for 24 h prior to addition of experimental drugs. After 24 h, two plates of each cell line were fixed in situ with TCA, to represent a measurement of the cell population for each cell line at the time of drug addition (Tz). Evaluation of inhibitory activity on cell proliferation: ECO-04601 was provided as a lyophilized powder with an estimated purity of 90+%. The compound was stored at −20° C. until day of use. ECO-04601 was solubilized in dimethyl sulfoxide at 400-fold the desired final maximum test concentration. At the time of drug addition, an aliquot of frozen concentrate was thawed and diluted to twice the desired final maximum test concentration with complete medium containing 50 μg/mL gentamicin. Additional four, 10-fold or Y2 log serial dilutions were made to provide a total of five drug concentrations plus control. Aliquots of 100 μl of these different drug dilutions were added to the appropriate microtiter wells already containing 100 μl of medium, resulting in the required final drug concentrations (8.0×10^−5 M to 8.0×10^−9 M).
(§3) Following drug addition, the plates were incubated for an additional 48 h at 37° C., 5% CO2, 95% air, and 100% relative humidity. For adherent cells, the assay was terminated by the addition of cold TCA. Cells were fixed in situ by the gentle addition of 50 μl of cold 50% (w/v) TCA (final concentration, 10% TCA) and incubated for 60 minutes at 4° C. Supernatants were discarded, and the plates were washed five times with tap water and air-dried. Sulforhodamine B (SRB) solution (100 μl) at 0.4% (w/v) in 1% acetic acid was added to each well, and plates were incubated for 10 minutes at room temperature. After staining, unbound dye was removed by washing five times with 1% acetic acid and the plates were air-dried. Bound stain was subsequently solubilized with 10 mM trizma base, and the absorbance was read on an automated plate reader at a wavelength of 515 nm. For suspension cells, the methodology was the same except that the assay was terminated by fixing settled cells at the bottom of the wells by gently adding 50 μl of 80% TCA (final concentration, 16% TCA).
(§4) The growth inhibitory activity of ECO-04601 was measured by NCI utilizing the GI50 value, rather than the classical IC50 value.

[2] = tested on: ACHN; conditions: Homo sapiens, Renal, 48 h
Procedure: as §1, §2, §3, §4

[3] = tested on: CCRF-CEM; conditions: Homo sapiens, Leukemia, 48 h
Procedure: as §1, §2, §3, §4

[4] = tested on: EKVX; conditions: Homo sapiens, Non-Small Cell Lung, 48 h
Procedure: as §1, §2, §3, §4

[5] = tested on: HCT-116; conditions: Homo sapiens, HCT-116, Colon, 48 h
Procedure: as §1, §2, §3, §4

[6] = tested on: HOP-62; conditions: Homo sapiens, HOP-62, Non-Small Cell Lung, 48 h
Procedure: as §1, §2, §3, §4

[7] = tested on: HS 578T; conditions: Homo sapiens, Breast, 48 h
Procedure: as §1, §2, §3, §4

[8] = tested on: HT29; conditions: Homo sapiens, HT-29, HT29, Colon, 48 h
Procedure: as §1, §2, §3, §4

[9] = tested on: LOX IMVI; conditions: Homo sapiens, Melanoma, 48 h
Procedure: as §1, §2, §3, §4

[10] = tested on: M14; conditions: Homo sapiens, M14, Melanoma, 48 h
Procedure: as §1, §2, §3, §4

[11] = tested on: MDA-MB-231/ATCC; conditions: Homo sapiens, Breast, 48 h
Procedure: as §1, §2, §3, §4

[12] = tested on: MDA-MB-435; conditions: Homo sapiens, MDA-MB-435, Breast, 48 h
Procedure: as §1, §2, §3, §4

[13] = tested on: NCI-H226; conditions: Homo sapiens, NCI-H226, Non-Small Cell Lung, 48 h
Procedure: as §1, §2, §3, §4

[14] = tested on: NCI-H23; conditions: Homo sapiens, NCI-H23, Non-Small Cell Lung, 48 h
Procedure: as §1, §2, §3, §4

[15] = tested on: NCI/ADR-RES; conditions: Homo sapiens, Breast, 48 h
Procedure: as §1, §2, §3, §4

[16] = tested on: OVCAR-4; conditions: Homo sapiens, OVCAR-4, Ovarian, 48 h
Procedure: as §1, §2, §3, §4

[17] = tested on: SF-268; conditions: Homo sapiens, SF-268, CNS, 48 h
Procedure: as §1, §2, §3, §4

[18] = tested on: SF-295; conditions: Homo sapiens, SF-295, CNS, 48 h
Procedure: as §1, §2, §3, §4

[19] = tested on: SF-539; conditions: Homo sapiens, SF-539, CNS, 48 h
Procedure: as §1, §2, §3, §4

[20] = tested on: SK-MEL-28; conditions: Homo sapiens, SK-MEL-28, Melanoma, 48 h
Procedure: as §1, §2, §3, §4

[21] = tested on: SK-MEL-5; conditions: Homo sapiens, SK-MEL-5, Melanoma, 48 h
Procedure: as §1, §2, §3, §4

[22] = tested on: SK-OV-3; conditions: Homo sapiens, SK-OV-3, Ovarian, 48 h
Procedure: as §1, §2, §3, §4

[23] = tested on: SNB-75; conditions: Homo sapiens, SNB-75, CNS, 48 h
Procedure: as §1, §2, §3, §4

[24] = tested on: U251; conditions: Homo sapiens, U-251, U251, CNS, 48 h
Procedure: as §1, §2, §3, §4

[25] = tested on: UACC-257; conditions: Homo sapiens, UACC-257, Melanoma, 48 h
Procedure: as §1, §2, §3, §4

[26] = tested on: UACC-62; conditions: Homo sapiens, UACC-62, Melanoma, 48 h
Procedure: as §1, §2, §3, §4

## CC(C)=CCC/C(C)=C/CC/C(C)=C/CN1C(=O)c2cccc(O)c2Nc2c(O)cc(O)cc21 [ECO-04601, 10-farnesyl-4,6,8-trihydroxy-dibenzodiazepin-11-one]
[1]
  GI50: 22.3 µM
[2]
  GI50: 3.1 µM
[3]
  GI50: 1080 nM
[4]
  GI50: 230 nM
[5]
  GI50: 2920 nM
[6]
  GI50: 8.29 µM
[7]
  GI50: 2760 nM
[8]
  GI50: 20.7 µM
[9]
  GI50: 4.53 µM
[10]
  GI50: 4.57 µM
[11]
  GI50: 2720 nM
[12]
  GI50: 15.3 µM
[13]
  GI50: 2000 nM
[14]
  GI50: 2020 nM
[15]
  GI50: 18.3 µM
[16]
  GI50: 9.67 µM
[17]
  GI50: 4.94 µM
[18]
  GI50: 12.7 µM
[19]
  GI50: 7.5 nM
[20]
  GI50: 11.6 µM
[21]
  GI50: 7.8 µM
[22]
  GI50: 4 µM
[23]
  GI50: 7.71 µM
[24]
  GI50: 2190 nM
[25]
  GI50: 2310 nM
[26]
  GI50: 1550 nM
